Assay results reported in patent US7612211B2, “Benzimidazole TRPV1 inhibitors” (Janssen Pharmaceutica N.V., priority 2006, dated 2009).

Molecular target: T1, hTRPV1 (Homo sapiens, UniProt Q8NER1)
T1 construct: expressed in transfected cells; host or cells: HEK293
Test: Human TRPV1 (hTRPV1) functional assay, FLIPR intracellular Ca2+, capsaicin challenge
Format: cell-based
Conditions: HEK293 cells expressing hTRPV1, capsaicin 0.030 μM challenge; for inhibition at 0.2 µM: test concentration of 0.2 μm, read-out: percent inhibition (symbol b); for IC50: derived from a variety of test concentrations, read-out: IC50 value (symbol c); for inhibition at 0.5 µM: test concentration of 0.5 μm, read-out: percent inhibition (symbol a)
Experimental: The functional activity of the test compounds was determined by measuring changes in intracellular calcium concentration using a Ca^++-sensitive fluorescent dye and FLIPR™ technology. Increases in Ca^++ concentration were readily detected upon challenge with capsaicin.
HEK293 cells expressing hTRPV1 were grown on poly-D-lysine coated 384 well black-walled plates (BD 354663) and 1 day later loaded with Calcium 3 Dye for 35 min at 37° C., 5% CO2 and then for 25 min at room temperature, and subsequently tested for agonist-induced increases in intracellular Ca^2+ levels using FLIPR™ technology. Cells were challenged with test compounds (at varying concentrations) and intracellular Ca^2+ was measured for 5 min prior to the addition of capsaicin to all wells to achieve a final concentration of 0.030 μM eliciting ˜80% maximal response.
EC50 or IC50 values were determined from concentration-response studies, which were generated using the average of quadruplicate wells for each data point. The symbol “a” represents percent inhibition obtained at a test concentration of 0.5 μm; the symbol “b” represents percent inhibition obtained at a test concentration of 0.2 μm; the symbol “c” represents an IC50 value (nM) derived from a variety of test concentrations. The term “NA” means that the result is not applicable for a particular compound.

T1 sequence (Q8NER1 whole entry): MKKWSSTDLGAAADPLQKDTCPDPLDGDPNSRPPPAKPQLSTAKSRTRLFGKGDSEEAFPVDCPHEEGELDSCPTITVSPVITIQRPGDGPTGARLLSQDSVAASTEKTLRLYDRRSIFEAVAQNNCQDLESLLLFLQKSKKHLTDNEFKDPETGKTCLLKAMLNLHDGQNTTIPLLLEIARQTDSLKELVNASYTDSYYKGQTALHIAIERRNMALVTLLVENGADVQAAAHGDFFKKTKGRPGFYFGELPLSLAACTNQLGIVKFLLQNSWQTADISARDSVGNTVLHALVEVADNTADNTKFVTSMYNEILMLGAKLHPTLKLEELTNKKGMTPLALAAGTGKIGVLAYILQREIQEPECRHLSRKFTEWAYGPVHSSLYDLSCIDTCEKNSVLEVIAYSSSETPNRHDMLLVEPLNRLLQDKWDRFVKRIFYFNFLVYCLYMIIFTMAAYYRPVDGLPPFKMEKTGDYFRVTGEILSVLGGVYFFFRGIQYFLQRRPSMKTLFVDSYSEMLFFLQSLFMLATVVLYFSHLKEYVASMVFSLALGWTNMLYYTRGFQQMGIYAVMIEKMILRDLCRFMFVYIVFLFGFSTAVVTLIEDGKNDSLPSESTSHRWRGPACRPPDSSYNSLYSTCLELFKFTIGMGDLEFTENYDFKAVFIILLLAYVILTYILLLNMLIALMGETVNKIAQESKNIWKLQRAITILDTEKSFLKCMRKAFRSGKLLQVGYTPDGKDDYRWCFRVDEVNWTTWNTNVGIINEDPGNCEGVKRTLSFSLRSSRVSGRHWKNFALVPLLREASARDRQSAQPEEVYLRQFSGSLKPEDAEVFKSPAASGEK

Row | inhibition at 0.2 µM | IC50 | inhibition at 0.5 µM | SMILES
1 | 98% | 6 nM |  | CNS(=O)(=O)c1ccccc1-c1ccc2[nH]c(COc3ccc(C4CC4)cc3)nc2c1 [Cpd 165, 2-[2-(4-cyclopropyl-phenoxymethyl)-1H-benzoimidazol-5-yl]-N-methyl-benzenesulfonamide]
2 |  | 105 nM | 92% | NS(=O)(=O)c1cc(C(F)(F)F)ccc1-c1ccc2[nH]c(COc3ccc(C(F)(F)F)cc3)nc2c1 [Cpd 133, 5-trifluoromethyl-2-[2-(4-trifluoromethyl-phenoxymethyl)-1H-benzoimidazol-5-yl]-benzenesulfonamide]
3 |  | 13 nM | 100% | CC(C)(O)c1ccccc1-c1ccc2[nH]c(COc3ccc(S(C)(=O)=O)cc3)nc2c1 [Cpd 25, 2-{2-[2-(4-methanesulfonyl-phenoxymethyl)-1H-benzoimidazol-5-yl]-phenyl}-propan-2-ol]
4 |  |  | 12% | Nc1ccc(-c2ccc3[nH]c(COc4ccc(C(F)(F)F)cc4)nc3c2)cc1 [Cpd 124, 4-[2-(4-trifluoromethyl-phenoxymethyl)-1H-benzoimidazol-5-yl]-phenylamine]
5 |  |  | 11% | CNS(=O)(=O)c1ccc(-c2ccc3[nH]c(COc4ccc(C(F)(F)F)cc4)nc3c2)cc1 [Cpd 125, N-methyl-4-[2-(4-trifluoromethyl-phenoxymethyl)-1H-benzoimidazol-5-yl]-benzenesulfonamide]
6 |  |  | 11% | COC(=O)c1cccc(-c2ccc3[nH]c(COc4ccc(C(F)(F)F)cc4)nc3c2)c1 [Cpd 130, 3-[2-(4-trifluoromethyl-phenoxymethyl)-1H-benzoimidazol-5-yl]-benzoic acid methyl ester]
7 | 100% | 7.8 nM |  | CNS(=O)(=O)c1ccccc1-c1ccc2[nH]c(COc3ccc(C(C)C)cc3)nc2c1 [Cpd 51, 2-[2-(4-isopropyl-phenoxymethyl)-1H-benzoimidazol-5-yl]-N-methyl-benzenesulfonamide]
8 |  | 58 nM | 98% | CC(O)c1ccccc1-c1ccc2[nH]c(COc3ccc(C(F)(F)F)cc3)nc2c1 (stereo not shown) [Cpd 110, 1-{2-[2-(4-trifluoromethyl-phenoxymethyl)-1H-benzoimidazol-5-yl]-phenyl}-ethanol]
9 |  | 17 nM | 101% | CNS(=O)(=O)c1ccccc1-c1ccc2[nH]c(C(F)(F)Oc3ccc(C(F)(F)F)cc3)nc2c1 [Cpd 140, 2-{2-[difluoro-(4-trifluoromethyl-phenoxy)-methyl]-1H-benzoimidazol-5-yl}-N-methyl-benzenesulfonamide]
10 | 63% |  |  | O=S(=O)(CCO)c1ccccc1-c1ccc2[nH]c(COc3ccc(S(=O)(=O)C(F)(F)F)cc3)nc2c1 [Cpd 161, 2-{2-[2-(4-trifluoromethanesulfonyl-phenoxymethyl)-1H-benzoimidazol-5-yl]-benzenesulfonyl}-ethanol]
11 |  | 20 nM | 100% | CNS(=O)(=O)c1ccccc1-c1ccc2[nH]c(COc3ccc(S(=O)(=O)C(F)(F)F)cc3)nc2c1 [Cpd 20, N-methyl-2-[2-(4-trifluoromethanesulfonyl-phenoxymethyl)-1H-benzoimidazol-5-yl]-benzenesulfonamide]

Continued, compound first:

Row | SMILES | inhibition at 0.2 µM | IC50 | inhibition at 0.5 µM
12 | NS(=O)(=O)c1ccccc1-c1ccc2[nH]c(CS(=O)(=O)c3ccc(Cl)cc3)nc2c1 [Cpd 45, 2-[2-(4-chloro-benzenesulfonylmethyl)-1H-benzoimidazol-5-yl]-benzenesulfonamide] | 2% |  | 
13 | CS(=O)(=O)c1ccccc1-c1ccc2[nH]c(COc3ccc(F)c(F)c3F)nc2c1 [Cpd 70, 5-(2-methanesulfonyl-phenyl)-2-(2,3,4-trifluoro-phenoxymethyl)-1H-benzoimidazole] | 33% |  | 
14 | NS(=O)(=O)c1ccccc1-c1ccc2[nH]c(NCc3ccc(C(F)(F)F)cc3)nc2c1 [Cpd 136, 2-[2-(4-trifluoromethyl-benzylamino)-1H-benzoimidazol-5-yl]-benzenesulfonamide] |  | 68 nM | 99%
15 | COc1cccc(OCc2nc3cc(-c4ccccc4S(C)(=O)=O)ccc3[nH]2)c1 [Cpd 97, 5-(2-methanesulfonyl-phenyl)-2-(3-methoxy-phenoxymethyl)-1H-benzoimidazole] | 42% |  | 
16 | CS(=O)(=O)c1ccccc1-c1ccc2[nH]c(COc3ccccc3F)nc2c1 [Cpd 54, 2-(2-fluoro-phenoxymethyl)-5-(2-methanesulfonyl-phenyl)-1H-benzoimidazole] | 4% |  | 
17 | CS(=O)(=O)c1ccccc1-c1ccc2[nH]c(COc3ccc(F)cc3)nc2c1 [Cpd 56, 2-(4-fluoro-phenoxymethyl)-5-(2-methanesulfonyl-phenyl)-1H-benzoimidazole] | 31% |  | 
18 | CS(=O)(=O)c1ccccc1-c1ccc2[nH]c(COc3cccc(Cl)c3)nc2c1 [Cpd 58, 2-(3-chloro-phenoxymethyl)-5-(2-methanesulfonyl-phenyl)-1H-benzoimidazole] | 22% |  | 
19 | CS(=O)(=O)c1ccccc1-c1ccc2[nH]c(COc3cccc(C(F)(F)F)c3F)nc2c1 [Cpd 71, 2-(2-fluoro-3-trifluoromethyl-phenoxymethyl)-5-(2-methanesulfonyl-phenyl)-1H-benzoimidazole] | 43% |  | 
20 | CC(Oc1ccc(C(F)(F)F)cc1)c1nc2cc(-c3ccccc3S(N)(=O)=O)ccc2[nH]1 (stereo not shown) [Cpd 156, 2-{2-[1-(4-trifluoromethyl-phenoxy)-ethyl]-1H-benzoimidazol-5-yl}-benzenesulfonamide] | 76% | 78 nM | 
21 | CS(=O)(=O)c1ccccc1-c1ccc2[nH]c(COc3ccc(F)cc3F)nc2c1 [Cpd 62, 2-(2,4-difluoro-phenoxymethyl)-5-(2-methanesulfonyl-phenyl)-1H-benzoimidazole] | 24% |  | 
22 | CS(=O)(=O)c1ccccc1-c1ccc2[nH]c(COc3ccc4c(c3)CCCC4)nc2c1 [Cpd 87, 5-(2-methanesulfonyl-phenyl)-2-(5,6,7,8-tetrahydro-naphthalen-2-yloxymethyl)-1H-benzoimidazole] | 96% | 14 nM | 
23 | NS(=O)(=O)c1ccccc1-c1ccc2[nH]c(CSc3ccc(C(F)(F)F)cc3)nc2c1 [Cpd 41, 2-[2-(4-trifluoromethyl-phenylsulfanylmethyl)-1H-benzoimidazol-5-yl]-benzenesulfonamide] | 98% | 4.9 nM | 
24 | NS(=O)(=O)c1ccccc1-c1ccc2[nH]c(COc3ccc(F)c(F)c3)nc2c1 [Cpd 10, 2-[2-(3,4-difluoro-phenoxymethyl)-1H-benzoimidazol-5-yl]-benzenesulfonamide] |  | 120 nM | 
25 | CC(C)(O)c1ccccc1-c1ccc2[nH]c(COc3ccccc3)nc2c1 [Cpd 50, 2-[2-(2-phenoxymethyl-1H-benzoimidazol-5-yl)-phenyl]-propan-2-ol] | 81% | 91 nM | 
26 | CCC(Oc1ccc(C(F)(F)F)cc1)c1nc2cc(-c3ccccc3S(N)(=O)=O)ccc2[nH]1 (stereo not shown) [Cpd 157, 2-{2-[1-(4-trifluoromethyl-phenoxy)-propyl]-1H-benzoimidazol-5-yl}-benzenesulfonamide] | 20% |  | 
27 | CS(=O)(=O)c1ccccc1-c1ccc2[nH]c(COc3cc(F)c(F)cc3F)nc2c1 [Cpd 69, 5-(2-methanesulfonyl-phenyl)-2-(2,4,5-trifluoro-phenoxymethyl)-1H-benzoimidazole] | 21% |  | 
28 | NS(=O)(=O)c1ccccc1-c1ccc2[nH]c(CSc3ccc(OC(F)(F)F)cc3)nc2c1 [Cpd 43, 2-[2-(4-trifluoromethoxy-phenylsulfanylmethyl)-1H-benzoimidazol-5-yl]-benzenesulfonamide] | 87% | 123 nM | 
29 | CS(=O)(=O)c1ccccc1-c1ccc2[nH]c(COc3ccc(Br)cc3)nc2c1 [Cpd 61, 2-(4-bromo-phenoxymethyl)-5-(2-methanesulfonyl-phenyl)-1H-benzoimidazole] | 77% | 66 nM | 
30 | CS(=O)(=O)c1ccccc1-c1ccc2[nH]c(COc3ccc4c(c3)CCC4)nc2c1 [Cpd 91, 2-(indan-5-yloxymethyl)-5-(2-methanesulfonyl-phenyl)-1H-benzoimidazole] | 99% | 21 nM | 
31 | NS(=O)(=O)c1ccccc1-c1ccc2[nH]c(COc3cc(C(F)(F)F)cc(C(F)(F)F)c3)nc2c1 [Cpd 31, 2-[2-(3,5-bis-trifluoromethyl-phenoxymethyl)-1H-benzoimidazol-5-yl]-benzenesulfonamide] |  | 10.6 nM | 97%
32 | CS(=O)(=O)c1ccccc1-c1ccc2[nH]c(COc3ccc4c(c3)OCO4)nc2c1 [Cpd 92, 2-(benzo[1,3]dioxol-5-yloxymethyl)-5-(2-methanesulfonyl-phenyl)-1H-benzoimidazole] | 76% | 86 nM | 
33 | CC(C)(O)c1ccccc1-c1ccc2[nH]c(COc3ccc(OC(F)(F)F)cc3)nc2c1 [Cpd 22, 2-{2-[2-(4-trifluoromethoxy-phenoxymethyl)-1H-benzoimidazol-5-yl]-phenyl}-propan-2-ol] |  | 4 nM | 100%
34 | NS(=O)(=O)c1ccccc1-c1ccc2[nH]c(COc3ccc(F)c(Cl)c3)nc2c1 [Cpd 11, 2-[2-(3-chloro-4-fluoro-phenoxymethyl)-1H-benzoimidazol-5-yl]-benzenesulfonamide] |  | 38 nM | 
